This is an account of results in PMC8179156, “Retrograde sulfur flow from glucosinolates to cysteine in Arabidopsis thaliana” (Proceedings of the National Academy of Sciences of the …, 2021).

Common to all, as to format: biochemical
The target of one assay is T1, AtBGLU28-His6 (Arabidopsis thaliana, UniProt Q4V3B3).
T1 construct: gene BGLU28; C-terminal His6 tag; transient expression in Nicotiana benthamiana leaves; crude protein extract
T1 sequence (Q4V3B3 22-582): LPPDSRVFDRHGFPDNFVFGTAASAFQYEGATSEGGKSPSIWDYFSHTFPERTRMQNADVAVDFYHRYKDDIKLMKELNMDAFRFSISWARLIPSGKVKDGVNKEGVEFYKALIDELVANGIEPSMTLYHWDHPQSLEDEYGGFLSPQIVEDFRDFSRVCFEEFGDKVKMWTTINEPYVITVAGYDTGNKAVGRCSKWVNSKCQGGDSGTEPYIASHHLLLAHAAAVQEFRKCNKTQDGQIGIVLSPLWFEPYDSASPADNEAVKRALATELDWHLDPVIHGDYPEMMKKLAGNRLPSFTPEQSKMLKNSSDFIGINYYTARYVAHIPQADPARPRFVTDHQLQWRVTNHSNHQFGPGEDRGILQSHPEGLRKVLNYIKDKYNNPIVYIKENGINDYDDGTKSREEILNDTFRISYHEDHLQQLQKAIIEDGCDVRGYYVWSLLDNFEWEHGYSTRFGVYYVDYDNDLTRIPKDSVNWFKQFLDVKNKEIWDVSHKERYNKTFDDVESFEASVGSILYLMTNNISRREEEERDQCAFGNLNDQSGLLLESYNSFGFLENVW
Nature of the assay: D-glucose release, extract of expressing N. benthamiana leaves. Particulars: crude extract; His6-GFP control at background.

A further assay deals with T2, AtTGG1-His6 (Arabidopsis thaliana, UniProt P37702).
T2 construct: gene TGG1; His6 tag (printed AtTGG1-His6); transient expression in Nicotiana benthamiana leaves; crude protein extract
The description is as above. Particulars: crude extract; His6-GFP control at background.

The target in assay [1] is T3, AtOXP1 (Arabidopsis thaliana, UniProt Q9FIZ7).
T3 construct: gene OXP1; native enzyme in crude protein extract of 14-d-old seedlings; assigned by comparison with oxp1-1 mutant
T3 sequence (Q9FIZ7 1-1266): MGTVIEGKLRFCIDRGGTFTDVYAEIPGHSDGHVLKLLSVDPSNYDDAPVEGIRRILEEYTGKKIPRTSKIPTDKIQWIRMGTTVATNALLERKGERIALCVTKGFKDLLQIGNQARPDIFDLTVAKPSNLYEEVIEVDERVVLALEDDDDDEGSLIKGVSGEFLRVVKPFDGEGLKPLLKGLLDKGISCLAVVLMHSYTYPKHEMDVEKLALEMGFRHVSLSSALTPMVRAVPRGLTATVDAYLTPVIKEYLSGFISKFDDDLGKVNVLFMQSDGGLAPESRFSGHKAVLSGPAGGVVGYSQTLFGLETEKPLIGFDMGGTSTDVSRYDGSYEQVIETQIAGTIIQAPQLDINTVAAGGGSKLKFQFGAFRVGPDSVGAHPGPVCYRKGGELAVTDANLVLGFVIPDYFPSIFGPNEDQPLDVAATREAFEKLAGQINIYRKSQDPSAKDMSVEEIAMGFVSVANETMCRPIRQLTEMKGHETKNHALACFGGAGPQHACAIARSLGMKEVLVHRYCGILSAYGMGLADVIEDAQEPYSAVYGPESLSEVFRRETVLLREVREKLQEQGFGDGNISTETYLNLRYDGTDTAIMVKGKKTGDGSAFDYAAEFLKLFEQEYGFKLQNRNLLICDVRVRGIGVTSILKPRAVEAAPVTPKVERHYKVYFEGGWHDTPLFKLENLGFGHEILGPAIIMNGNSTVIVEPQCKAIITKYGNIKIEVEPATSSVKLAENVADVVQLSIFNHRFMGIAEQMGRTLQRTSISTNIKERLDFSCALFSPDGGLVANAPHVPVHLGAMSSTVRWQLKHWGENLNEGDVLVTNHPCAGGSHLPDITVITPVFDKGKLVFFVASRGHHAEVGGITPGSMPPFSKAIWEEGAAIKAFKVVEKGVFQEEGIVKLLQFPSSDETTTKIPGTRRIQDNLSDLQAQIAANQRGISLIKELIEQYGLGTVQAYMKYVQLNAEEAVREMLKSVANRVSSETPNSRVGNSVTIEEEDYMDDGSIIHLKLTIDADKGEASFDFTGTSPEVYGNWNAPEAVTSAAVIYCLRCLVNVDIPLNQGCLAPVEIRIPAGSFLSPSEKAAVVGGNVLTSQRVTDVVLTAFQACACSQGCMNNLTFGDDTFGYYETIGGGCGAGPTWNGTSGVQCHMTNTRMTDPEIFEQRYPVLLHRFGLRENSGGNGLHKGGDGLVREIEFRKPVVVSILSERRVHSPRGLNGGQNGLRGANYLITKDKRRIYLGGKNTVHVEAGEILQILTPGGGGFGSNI
The assay is described as follows: Glu production in crude seedling extract, WT versus oxp1-1. Conditions: native crude extract; stereochemistry of 5OP not given.

Assay [2] has as its target T3, AtOXP1. The assay is described as follows: Cys production in crude seedling extract, WT versus oxp1-1. Particulars: native crude extract; stereochemistry of pCys not given.

T2 sequence (P37702 20-541): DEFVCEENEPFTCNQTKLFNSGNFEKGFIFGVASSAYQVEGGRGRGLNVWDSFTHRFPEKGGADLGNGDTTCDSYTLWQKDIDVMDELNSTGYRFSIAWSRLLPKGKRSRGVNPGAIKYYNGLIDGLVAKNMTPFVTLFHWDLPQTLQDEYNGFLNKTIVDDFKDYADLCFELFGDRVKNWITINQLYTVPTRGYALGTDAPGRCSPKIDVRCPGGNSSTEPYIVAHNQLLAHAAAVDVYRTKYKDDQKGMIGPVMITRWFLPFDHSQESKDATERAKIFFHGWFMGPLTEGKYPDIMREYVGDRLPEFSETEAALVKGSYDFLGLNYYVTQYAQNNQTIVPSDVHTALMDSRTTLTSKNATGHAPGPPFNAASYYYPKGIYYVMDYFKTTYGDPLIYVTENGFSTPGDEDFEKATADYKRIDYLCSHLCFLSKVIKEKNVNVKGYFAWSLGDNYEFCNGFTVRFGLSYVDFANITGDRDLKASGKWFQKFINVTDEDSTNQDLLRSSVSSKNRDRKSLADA

Take `CSCCCC/C(=N/OS(=O)(=O)O)S[C@@H]1O[C@H](CO)[C@@H](O)[C@H](O)[C@H]1O` [4MTB, 4-Methylthio-n-butyl glucosinolate]: the “D-glucose release, extract of expressing N. benthamiana leaves” value is “exhibited higher rates of hydrolysis against 4MTB, benzyl glucosinolate, and PhE” at AtBGLU28-His6; “the extract containing AtTGG1-His6 hydrolyzed all the tested GLs at similar rates” at AtTGG1-His6.

As for `O=C1CC[C@@H](C(=O)O)N1` [5OP, 5-oxoproline], the “Glu production in crude seedling extract, WT versus oxp1-1” value at AtOXP1 [1] was “lower rate of Cys production than the WT as observed for the Glu production from 5OP”.

With `O=S(=O)(O)O/N=C(/CCc1ccccc1)S[C@@H]1O[C@H](CO)[C@@H](O)[C@H](O)[C@H]1O` [PhE, 2-Phenylethyl glucosinolate], the “D-glucose release, extract of expressing N. benthamiana leaves” value on AtBGLU28-His6 is “exhibited higher rates of hydrolysis against 4MTB, benzyl glucosinolate, and PhE”; at AtTGG1-His6, “the extract containing AtTGG1-His6 hydrolyzed all the tested GLs at similar rates”.

Consider `O=C1N[C@H](C(=O)O)CS1` [pCys, 1,3-thiazolidin-2-one-4-carboxylic acid], for which the “Cys production in crude seedling extract, WT versus oxp1-1” value at AtOXP1 [2] is “supporting that AtOXP1 can hydrolyze pCys, as reported for OPases in other organisms”.
